Laboratory results from US20110086923A1, “Method to increase oxygen in male and female sexual organs through the topical use of perfluorocarbons” (priority 2009, published 2011).

Experiment: Physical properties of F-tert-butylcyclohexane
Type: physicochemical
Text: Oxycyte™ is a perfluorocarbon emulsion oxygen carrier. The active ingredient in Oxycyte™, perfluoro(tert-butylcyclohexane) (C10F20, MW-500), also known as F-tert-butylcyclohexane or “FtBu”, is a saturated alicyclic PFC.
Oxycyte™ can be used as a PFC composition in the methods and uses described herein. Physical properties of F-tert-butylcyclohexane are as follows: […]

- Density: 1.97 g/mL
- Kinematic Viscosity: 5.378 cP
- lipophilicity: non-lipophilic
- water solubility: non-water soluble
- Vapor Pressure @ 25° C. (25° C.): 3.8 mmHg
- Vapor Pressure @ 37° C. (37° C.): 4.4 mmHg
SMILES: FC(F)(F)C(C(F)(F)F)(C(F)(F)F)C1(F)C(F)(F)C(F)(F)C(F)(F)C(F)(F)C1(F)F [Perfluoro(tert-butylcyclohexane), perfluoro(tert-butylcyclohexane)]
